This passage reports mutagenic call and call results from PubChem BioAssay AID1259408 (Genetic Toxicology Data Bank (GENE-TOX), 2018).

Activity calls are given as the source filed them. No rule for the calls is given here.

For this series, the system named is GENE-TOX genotoxicity assays, various organisms and cells. As to the kind of experiment: GENE-TOX mutagenicity studies. The following applies: for call: Assay Type: In vivo carcinogenicity studies.
Setting [1] is: Species/Cell Type: Escherichia coli polA (W3119 vs P3478), Assay Type: Rec-assay, DNA effects (bacterial DNA repair), Assay Code: RE1-, Evaluation Type: Evaluation A (Pre-1980).
Setting [2] is: Species/Cell Type: Human diploid fibroblasts, Assay Type: Unscheduled DNA synthesis (UDS) in vitro, DNA effects, Assay Code: UDHT, Evaluation Type: Evaluation A (Pre-1980).
Setting [3] is: Species/Cell Type: Human, Assay Type: Sister-chromatid exchange (SCE) in vitro, Assay Code: SC1+D, Dose Response: With dose response, Evaluation Type: Evaluation B (Post-1980).
Where [4] appears, read: Species/Cell Type: Nonhuman, Assay Code: CCG+, Evaluation Type: Evaluation A (Pre-1980).
Setting [5] is: Species/Cell Type: Salmonella typhimurium (one or more of the five standard strains: TA98, TA100, TA1535, TA1537, and TA1538), Assay Type: Histidine reverse gene mutation, Ames assay, Assay Code: SAL+*, Activation: With metabolic activation, Evaluation Type: Evaluation A (Pre-1980).
[6] abbreviates: Species/Cell Type: Salmonella typhimurium, Assay Type: Forward and reverse gene mutation, host-mediated assay, Assay Code: HMA+, Evaluation Type: Evaluation A (Pre-1980).
The mark [7] stands for this setting: Species/Cell Type: Salmonella typhimurium (one or more of the five standard strains: TA98, TA100, TA1535, TA1537, and TA1538), Assay Type: Histidine reverse gene mutation, Ames assay, Assay Code: SALT, Evaluation Type: Evaluation A (Pre-1980).
Setting [8] is: Species/Cell Type: Salmonella typhimurium (one or more of the five standard strains: TA98, TA100, TA1535, TA1537, and TA1538), Assay Type: Histidine reverse gene mutation, Ames assay, Assay Code: SAL+, Evaluation Type: Evaluation A (Pre-1980).
Setting [9] is: Species/Cell Type: Drosophila melanogaster, Assay Type: Sex-linked recessive lethal gene mutation, Assay Code: SRL+, Evaluation Type: Evaluation A (Pre-1980).

As to `CC(=O)Nc1ccc2c(c1)Cc1ccccc1-2`, the mutagenic call reads like this: (Species/Cell Type: Chinese hamster lung (V79) cells, Assay Type: Forward gene mutation at the HPRT or ouabain locus, Assay Code: V79-, Evaluation Type: Evaluation A (Pre-1980)) “inactive; negative”; (Species/Cell Type: Chinese hamster ovary (CHO) cells, Assay Type: Forward gene mutation at the HPRT locus, Assay Code: CHO+*, Activation: With metabolic activation, Evaluation Type: Evaluation B (Post-1980)) “active; positive”; (Species/Cell Type: Drosophila melanogaster, Assay Type: Sex-linked recessive lethal gene mutation, Assay Code: SRLT, Evaluation Type: Evaluation A (Pre-1980)) “no conclusion”; (Species/Cell Type: Escherichia coli polA (W3110 vs P3478), Assay Type: Rec-assay, DNA effects (bacterial DNA repair), Assay Code: RE2+, Evaluation Type: Evaluation A (Pre-1980)) “active; positive”; under setting [1], “inactive; negative”; (Species/Cell Type: Fischer rat embryo (RLV/1706) cells, Assay Type: Cell transformation, viral enhanced, Assay Code: CTRT, Evaluation Type: Evaluation A (Pre-1980)) “no conclusion”. For the same molecule, the mutagenic call under setting [2] is given as “no conclusion”; the mutagenic call (Species/Cell Type: Human lymphocytes, Assay Type: Sister-chromatid exchange (SCE) in vitro, Assay Code: SCL-, Evaluation Type: Evaluation A (Pre-1980)) was “inactive; negative”; the mutagenic call under setting [3] was “active; positive”; the mutagenic call (Species/Cell Type: Human, Assay Type: Sister-chromatid exchange (SCE) in vitro, Assay Code: SC1-, Evaluation Type: Evaluation A (Pre-1980)) is “inactive; negative”; the mutagenic call (Species/Cell Type: Mammalian polychromatic erythrocytes, Assay Type: Micronucleus test, chromosome aberrations, Assay Code: MNT+, Evaluation Type: Evaluation A (Pre-1980)) was “active; positive”; the mutagenic call (Species/Cell Type: Mouse (BALB/c-3T3) cells, Assay Type: Cell transformation, Assay Code: CTB+D, Dose Response: With dose response, Evaluation Type: Evaluation A (Pre-1980)) is “active; positive”. In addition, the mutagenic call is “active; positive” (Species/Cell Type: Mouse lymphoma (L5178Y) cells, Assay Type: Forward gene mutation at the thymidine kinase (TK) locus, chromosome aberrations, Assay Code: L51+*, Activation: With metabolic activation, Evaluation Type: Evaluation A (Pre-1980)); “inactive; negative” (Species/Cell Type: Mouse, Sex: Male, Assay Type: Sperm morphology, Assay Code: SPI-, Evaluation Type: Evaluation A (Pre-1980)); “active; positive” (Species/Cell Type: Nonhuman, Assay Type: Sister-chromatid exchange (SCE) in vitro, Assay Code: SC2+, Evaluation Type: Evaluation A (Pre-1980)); “active; positive” (Species/Cell Type: Nonhuman, Assay Type: Sister-chromatid exchange (SCE) in vivo, Assay Code: SC3+D, Dose Response: With dose response, Evaluation Type: Evaluation B (Post-1980)); “no conclusion” (Species/Cell Type: Nonhuman, Assay Type: Sister-chromatid exchange (SCE) in vivo, Assay Code: SC3T, Evaluation Type: Evaluation A (Pre-1980)); “active; positive” (Species/Cell Type: Rat primary hepatocytes, Assay Type: Unscheduled DNA synthesis (UDS) in vitro, DNA effects, Assay Code: UDP+, Evaluation Type: Evaluation A (Pre-1980)). In addition, the mutagenic call is, setting by setting: (Species/Cell Type: Saccharomyces cerevisiae, Assay Type: Mitotic recombination or gene conversion, Assay Code: YEC-*, Activation: With metabolic activation, Evaluation Type: Evaluation A (Pre-1980)) “inactive; negative”; (Species/Cell Type: Saccharomyces cerevisiae, Assay Type: Mitotic recombination or gene conversion, Assay Code: YEH-*, Activation: With metabolic activation, Evaluation Type: Evaluation A (Pre-1980)) “inactive; negative”; under setting [5], “active; positive”; (Species/Cell Type: Salmonella typhimurium, Assay Type: Forward and reverse gene mutation, body fluid assay, Assay Code: BFU+, Evaluation Type: Evaluation A (Pre-1980)) “active; positive”; under setting [6], “active; positive”; (Species/Cell Type: Syrian hamster embryo (SA7/SHE) cells, Assay Type: Cell transformation, viral enhanced, Assay Code: CT7-, Evaluation Type: Evaluation A (Pre-1980)) “inactive; negative”. The mutagenic call (Species/Cell Type: Syrian hamster embryo (SHE) cells, Assay Type: Cell transformation, clonal assay, Assay Code: CTC+D*, Activation: With metabolic activation, Dose Response: With dose response, Evaluation Type: Evaluation A (Pre-1980)) was “active; positive”. Also, the call under setting [4] was “active; positive”.

`OC/C=C/c1ccc2c(c1)OCO2`: the mutagenic call under setting [7] is given as “no conclusion”.

`C[As+](C)(C)CC(=O)[O-]`: where the note is “Species/Cell Type: Nonhuman, Assay Type: Sister-chromatid exchange (SCE) in vitro, Assay Code: SC2T, Evaluation Type: Evaluation B (Post-1980)”, the mutagenic call is given as “no conclusion”.

For `C#CC(OC(=O)NC1CCCCC1)(c1ccccc1)c1ccccc1`, the mutagenic call is, setting by setting: under setting [2], “no conclusion”; under setting [8], “active; positive”.

As to `C[CH2][Hg][N](c1ccccc1)S(=O)(=O)c1ccc(C)cc1`, under setting [9], the mutagenic call is “active; positive”.

In the case of `C=C(C)c1ccccc1`, the mutagenic call is, setting by setting: (Species/Cell Type: Human lymphocytes, Assay Type: Sister-chromatid exchange (SCE) in vitro, Assay Code: SCL+, Evaluation Type: Evaluation B (Post-1980)) “active; positive”; (Species/Cell Type: Human, Assay Type: Sister-chromatid exchange (SCE) in vitro, Assay Code: SC1+, Evaluation Type: Evaluation B (Post-1980)) “active; positive”.

Turning to `O=[N+]([O-])c1c2ccccc2c2ccc3cccc4ccc1c2c43`, the mutagenic call runs as follows: (Species/Cell Type: Chinese hamster ovary (CHO) cells, Assay Type: Forward gene mutation at the HPRT locus, Assay Code: CHOT, Evaluation Type: Evaluation B (Post-1980)) “no conclusion”; under setting [5], “active; positive”.

Regarding `CC(COc1ccccc1)N(CCCl)Cc1ccccc1` (stereo not given), the call under setting [4] is “active; positive”.

Turning to `CCNC(N)=O`, the mutagenic call under setting [6] is “active; positive”.

With `NC(=O)N(CCO)N=O`, under setting [8], the mutagenic call is “active; positive”.

As for `O=C1c2cccc(O)c2C(=O)c2c(O[C@@H]3O[C@H](CO)[C@@H](O)[C@H](O)[C@H]3O)cccc21`, under setting [5], the mutagenic call is “active; positive”.

In the case of `CC(C)C(Br)Br`, the mutagenic call (Species/Cell Type: Escherichia coli polA (W3119 vs P3478), Assay Type: Rec-assay, DNA effects (bacterial DNA repair), Assay Code: RE1+, Evaluation Type: Evaluation A (Pre-1980)) was “active; positive”.

Regarding `O=C(CNC(=O)c1ccccc1)NO`, under setting [8], the mutagenic call is “active; positive”.

For `Cc1ccc2cc3c(ccc4ccccc43)c3c2c1C(O)C3` (stereo not given), the mutagenic call runs as follows: (Species/Cell Type: Chinese hamster lung (V79) cells, Assay Type: Forward gene mutation at the HPRT or ouabain locus, Assay Code: V79+, Evaluation Type: Evaluation A (Pre-1980)) “active; positive”; under setting [7], “no conclusion”. The call (Species/Cell Type: Nonhuman, Assay Code: CCG+L, Evaluation Type: Evaluation A (Pre-1980)) was “active; positive”.

Turning to `CC(=O)Nc1nc(-c2csc(NC(C)=O)n2)cs1`, under setting [7], the mutagenic call was “no conclusion”.

As for `CCCCCCCCCCCCCCCCCC(=O)O`, the mutagenic call under setting [1] is “inactive; negative”.

With `Oc1cc(O)c2ccccc2c1`, the mutagenic call (Species/Cell Type: Allium cepa, Assay Type: Chromosome aberrations, Assay Code: ALCT, Evaluation Type: Evaluation A (Pre-1980)) is reported as “no conclusion”.

Regarding `Cc1cc(N(CCCl)CCCl)ccc1N=Nc1ccccc1C(=O)O`, the mutagenic call under setting [9] was “active; positive”.

Consider `CCC(=O)C(CC(C)N(C)C)(c1ccccc1)c1ccccc1` (stereo not given), for which the mutagenic call is “inactive; negative” (Species/Cell Type: Drosophila melanogaster, Assay Type: Sex-linked recessive lethal gene mutation, Assay Code: SRL-, Evaluation Type: Evaluation A (Pre-1980)); “inactive; negative” (Species/Cell Type: Drosophila melanogaster, Sex: Male, Assay Type: Heritable translocation test, chromosome aberrations, Assay Code: DHT-, Evaluation Type: Evaluation A (Pre-1980)); “no conclusion” (Species/Cell Type: Human, Sex: Male, Assay Type: Sperm morphology, Assay Code: SPHT, Evaluation Type: Evaluation A (Pre-1980)).

With `C=Cc1ccccc1C`, the mutagenic call reads like this: (Species/Cell Type: Human lymphocytes, Assay Type: Sister-chromatid exchange (SCE) in vitro, Assay Code: SCL+D, Dose Response: With dose response, Evaluation Type: Evaluation B (Post-1980)) “active; positive”; under setting [3], “active; positive”.

For `COc1cccc2oc3c4c(cc(OC)c3c(=O)c12)O[C@H]1OC=C[C@@H]41`, the mutagenic call under setting [7] is “no conclusion”.

Turning to `CC(=O)Nc1ccc(C(=O)CCl)cc1`, the call (Species/Cell Type: Nonhuman, Assay Code: CCG-, Evaluation Type: Evaluation A (Pre-1980)) was “inactive; negative”.

With `O=C1NC(c2ccc([N+](=O)[O-])s2)Nc2ccccc21` (stereo not given), the mutagenic call under setting [8] is “active; positive”.

As to `BrCC1CO1` (stereo not given), for the setting “Species/Cell Type: Neurospora crassa, Assay Type: Reverse gene mutation, Assay Code: NER+, Evaluation Type: Evaluation A (Pre-1980)”, the mutagenic call was “active; positive”.

With `ClC(Cl)(Cl)c1ccccc1`, under “Species/Cell Type: Bacillus subtilis (H17 vs M45), Assay Type: Rec-assay, spot test, DNA effects (bacterial DNA repair), Assay Code: REW+, Evaluation Type: Evaluation A (Pre-1980)”, the mutagenic call was “active; positive”. The call under setting [4] is “active; positive”.

`ClN1CCCCC1`: under “Species/Cell Type: Mammalian polychromatic erythrocytes, Assay Type: Micronucleus test, chromosome aberrations, Assay Code: MNT-, Evaluation Type: Evaluation B (Post-1980)”, the mutagenic call was “inactive; negative”.
